Measured values taken from ChEMBL document CHEMBL5528053, “Discovery of Novel Isoquinoline Analogues as Dual Tubulin Polymerization/V-ATPase Inhibitors with Immunogenic Cell Death Induction” (J Med Chem, 2024).
Calls of active or inactive are those of the source. The rule behind the calls is not given here.

What was measured:
[1] = test system: MDA-MB-231; test: Antiproliferative activity against human MDA-MB-231 cells assessed as inhibition of cell growth after 72 hrs by MTT assay; type: functional, cell-based; conditions: MDA-MB-231, 72 h
[2] = target: Tubulin (Homo sapiens) (UniProt P68371+Q9H4B7+P0DPH7+P68366+Q13509+Q71U36+P04350+Q3ZCM7+P07437+P68363+Q9BQE3+Q6PEY2+Q13885+Q9BVA1+Q9BUF5); test: Disruption of microtubule network in human PC-3 cells at 50 to 200 nM incubated for 6 to 24 hrs by immunofluorescence staining based confocal microscopy analysis relative to control; type: cell-based; conditions: dose 50-200 nM, time 6-24 hrs
[3] = target: Tubulin beta (Homo sapiens) (UniProt P68371+Q9H4B7+Q13509+P04350+Q3ZCM7+P07437+Q13885+Q9BVA1+Q9BUF5+A6NNZ2); test: Binding affinity to beta-tubulin colchicine binding site in human PC-3 cells assessed as inhibition of EBI-beta-tubulin adduct band formation preincubated for 2 hrs followed by EBI addition measured after 1.5 hrs by EBI competition based Western blotting analysis; type: cell-based; conditions: dose 1-100 µM, time 3.5 hrs
[4] = test system: PC-3; test: Inhibition of V-ATPase activity in human PC-3 cells at 200 nM measured after 24 hrs by colorimetric assay relative to control; type: cell-based
[5] = test system: PC-3; test: Inhibition of V-ATPase activity in human PC-3 cells at 400 nM measured after 24 hrs by colorimetric assay relative to control; type: cell-based
[6] = test system: PC-3; test: Induction of cell cycle arrest in human PC-3 cells assessed as accumulation of cells at G1 phase at 50 nM incubated for 24 hrs by flow cytometry analysis (reference value: 49.4%); type: functional
[7] = test system: PC-3; test: Induction of cell cycle arrest in human PC-3 cells assessed as accumulation of cells at S phase at 100 nM incubated for 24 hrs by flow cytometry analysis (reference value: 31.3%); type: functional
[8] = test system: PC-3; test: Induction of cell cycle arrest in human PC-3 cells assessed as accumulation of cells at G2/M phase at 50 nM incubated for 24 hrs by flow cytometry analysis (reference value: 19.5%); type: functional
[9] = test system: PC-3; test: Induction of cell cycle arrest in human PC-3 cells assessed as accumulation of cells at G2/M phase at 100 nM incubated for 24 hrs by flow cytometry analysis (reference value: 19.5%); type: functional
[10] = test system: PC-3; test: Induction of apoptosis in human PC-3 cells assessed as viable cells at 50 nM measured after 24 hrs by annexin V-FITC and PI staining based flow cytometry analysis (reference value: 90.6%); type: functional; conditions: read-out: Activity
[11] = test system: PC-3; test: Induction of apoptosis in human PC-3 cells assessed as early apoptotic cells at 100 nM measured after 24 hrs by annexin V-FITC and PI staining based flow cytometry analysis (reference value: 1.03%); type: functional
[12] = test system: PC-3; test: Induction of apoptosis in human PC-3 cells assessed as early apoptotic cells at 200 nM measured after 24 hrs by annexin V-FITC and PI staining based flow cytometry analysis (reference value: 1.03%); type: functional
[13] = test system: PC-3; test: Induction of apoptosis in human PC-3 cells assessed as necrotic cells at 50 nM measured after 24 hrs by annexin V-FITC and PI staining based flow cytometry analysis (reference value: 6.01%); type: functional
[14] = test system: PC-3; test: Induction of apoptosis in human PC-3 cells assessed as necrotic cells at 100 nM measured after 24 hrs by annexin V-FITC and PI staining based flow cytometry analysis (reference value: 6.01%); type: functional
[15] = test system: PC-3; test: Induction of apoptosis in human PC-3 cells assessed as increase in bax level at 50 to 200 nM incubated for 24 hrs by Western blot analysis; type: functional, cell-based; conditions: dose 50-200 nM
[16] = test system: PC-3; test: Induction of apoptosis in human PC-3 cells assessed as increase in p-bim-EL level at 50 to 200 nM incubated for 24 hrs by Western blot analysis; type: functional, cell-based; conditions: dose 50-200 nM
[17] = Toxicity in ICR mouse assessed as effect on WBC count at 10 mg/kg, ip measured for 14 days; type: organism-based; conditions: in vivo, 336 h, time 14 day
[18] = Toxicity in ICR mouse assessed as effect on CRE level at 10 mg/kg, ip measured for 14 days; type: organism-based; conditions: in vivo, 336 h, time 14 day
[19] = test system: PC-3; test: Inhibition of autophagy in human PC-3 cells assessed as increase in number of autophagosomes at 50 to 200 uM measured after 3 hrs by immunofluorescence imaging based analysis; type: functional, cell-based; conditions: dose 50-200 µM
[20] = test system: PC-3; test: Inhibition of autophagy in human PC-3 cells assessed as decrease in colocalization region at 50 to 200 uM measured after 3 hrs by immunofluorescence imaging based analysis; type: functional, cell-based; conditions: dose 50-200 µM
[21] = test system: RM1; test: Anticancer activity against mouse RM1 cells assessed as increase in CRT expression at 400 nM measured after 24 hrs by flow cytometry analysis; type: functional, cell-based

SMILES: COc1cc(-c2nc(C(N)=O)cc3cc4c(cc23)OCCO4)cc(Br)c1OC
- IC50 [1]: 0.13 µM
- Activity [2]: Active
- Activity [3]: Dose-Dependent Effect
- inhibition [4]: 36.7%
- inhibition [5]: 60%
- Activity [6]: 39.8%
- Activity [7]: 22.3%
- Activity [8]: 30.9%
- Activity [9]: 42.8%
- viability at 0.05 µM [10]: 87.6%
- Activity [11]: 21.6%
- Activity [12]: 22.7%
- Activity [13]: 6.91%
- Activity [14]: 6.41%
- Activity [15]: Active
- Activity [16]: Active
- Activity [17]: Non-Toxic
- Activity [18]: Non-Toxic
- inhibition [19]: Active
- inhibition [20]: Active
- Activity [21]: Active
